Legend:
MDR1 = target: T1, MDR1 (Homo sapiens, UniProt P08183); test: MDR1 membrane permeability test; assay type: in vitro ADME; settings: human MDR1-expressing LLC-PK1 cells, 10 μmol/L test compound, pH 7.4, read-out: Efflux ratio (ER)
T1 construct: expressed in transfected cells; host or cells: LLC-PK1 cells (porcine kidney)
Experimental: MDR1 membrane permeability test
When MDR1 is expressed in excess in LLC-PK1 cell, which is a polar cell, MDR1 is localized in apical membrane (A), thus promoting transcellular transport from the basement membrane side (B) toward direction A. When a ratio to the transcellular transport in the opposite direction is taken and a ratio to a control cell in which a mock vector has been introduced is further taken, an efflux ratio of MDR1 to simple diffusion (corrected efflux ratio) is calculated. Similarly, when a brain/plasma concentration ratio in Mdr1(−/−) mouse is divided by a brain/plasma concentration ratio in wild-type mouse, an efflux ratio of Mdr1 to simple diffusion in blood-brain barrier (BBB) (Kp, brain ratio, higher value means lower central nervous system permeability) is calculated. Adachi Y. et al. (Reference 1) has reported a positive correlation between corrected efflux ratio and Kp, brain ratio (FIG. 5(C)), and efflux ratio in MDR1 expressing cell and Kp, brain ratio (FIG. 5(B)).
To confirm the central nervous system permeability of the compounds of the present invention, a MDR1 membrane permeability test was performed by the following method.
Digoxin and lucifer yellow (LY) were purchased from Sigma-Aldrich, Diclofenac, colchicine and alprenolol were purchased from Wako Pure Chemical Industries, Ltd., and other reagents used were commercially available products of special grade.
Human MDR1-expressing LLC-PK1 cells were cultured according to the report of Takeuchi et al. (Reference 2). Human MDR1-expressing LLC-PK1 cells were cultured in 10% fetal bovine serum (Invitrogen), 500 μg/ml G418 (Invitrogen), 150 ng/ml colchicine-containing M199 medium (Invitrogen) under 5% CO2 conditions at 37° C.
Transcellular transport was performed according to the report of Sugimoto et al. (Reference 3). The cells were cultured for 3 days on HTS Transwell (registered trademark) 96 well permeable support (pore size 0.4 μm, 0.143 cm^2 surface area, Corning Life Sciences) having polyethylene terephthalate membrane on which the cells had been seeded at 3.45×10^4 cells/well. […] After 1 hr, the sample was collected from the side opposite to the side where the drug solution was added, and the concentration of the test compound was measured by LC-MS/MS. […]
LY was measured by a fluorescence plate reader (Fluoroskan Ascent FL).
Papp, A to B and Papp, B to A (apparent permeability) were calculated from the formula (1), and the efflux ratio (ER) was calculated from the formula (2). […]

Male ICR mice = test: Mouse defecation experiment; assay type: in vivo; settings: oral, mean±standard error
Experimental: Mouse Defecation Experiment
Male ICR mice (6-7 weeks old) were used after an acclimation period for about 1 week. A test drug (1 mg/kg or 3 mg/kg) was suspended in 0.5% methylcellulose solution and orally administered at a volume of 10 mL/kg, and the number of feces 2 hr later was counted. Only 0.5% methylcellulose was administered to a solvent administration group.

[1] = target: T2, human M1 receptor (hCHRM1) (Homo sapiens, UniProt P11229); test: Measurement of M1 receptor positive allosteric modulator (M1PAM) activity (IP1 HTRF, in presence of EC20 acetylcholine); assay type: cell-based; settings: CHO-K1 cells stably expressing hCHRM1; acetylcholine at EC20 concentration; IP1 readout
T2 construct: expressed in transfected cells
T2 sequence (P11229 1-460): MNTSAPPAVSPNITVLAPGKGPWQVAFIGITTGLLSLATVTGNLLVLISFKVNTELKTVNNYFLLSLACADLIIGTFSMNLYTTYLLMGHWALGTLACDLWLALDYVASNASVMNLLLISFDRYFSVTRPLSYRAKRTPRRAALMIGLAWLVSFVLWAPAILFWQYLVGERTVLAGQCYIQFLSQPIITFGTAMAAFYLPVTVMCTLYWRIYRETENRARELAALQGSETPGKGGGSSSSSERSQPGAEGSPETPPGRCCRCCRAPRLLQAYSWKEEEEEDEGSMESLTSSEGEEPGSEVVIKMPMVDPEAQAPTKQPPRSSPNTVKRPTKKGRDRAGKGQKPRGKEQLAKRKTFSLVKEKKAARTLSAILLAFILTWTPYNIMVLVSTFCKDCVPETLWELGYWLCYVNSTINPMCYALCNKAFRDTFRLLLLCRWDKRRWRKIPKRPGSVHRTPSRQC
Experimental: Measurement of M1 Receptor Positive Allosteric Modulator (M1PAM) Activity
The activity of a test compound in the presence of acetylcholine at an EC20 concentration affording about 20% action of the maximum activity was measured as PAM activity.
The method therefor is as follows. To a 384-well white plate (Greiner) was added 4 μL of the test compound diluted with IP1 Stimulation buffer (CisBio) containing 0.1% fatty acid-free BSA containing 80 nM acetylcholine. Freeze stock of CHO-K1 cells stably expressing human M1 receptor (hCHRM1) was prepared with IP1 Stimulation buffer (CisBio) containing 0.1% fatty acid-free BSA, 4 μL thereof was added (10,000 cells/well) and the mixture was cultured in a 5% CO2 incubator at 37° C. for 1 hr. 4 μL of a solution (CisBio) containing IP1-d2 and Anti-IP1-cryptate Tb conjugate was added, the mixture was incubated at room temperature for 1 hr, and the time-resolved fluorescence signal was measured on an Envision plate reader (PerkinElmer). The activity (%) of the test compound was calculated by defining the value when acetylcholine was added at the final concentration of 20 μM as 100% and the value when DMSO was added instead of the test compound under acetylcholine-free conditions as 0%, and the EC50 value was calculated as a value of 50% of the concentration dependence curve of the test compound.

T1 sequence (P08183 whole entry): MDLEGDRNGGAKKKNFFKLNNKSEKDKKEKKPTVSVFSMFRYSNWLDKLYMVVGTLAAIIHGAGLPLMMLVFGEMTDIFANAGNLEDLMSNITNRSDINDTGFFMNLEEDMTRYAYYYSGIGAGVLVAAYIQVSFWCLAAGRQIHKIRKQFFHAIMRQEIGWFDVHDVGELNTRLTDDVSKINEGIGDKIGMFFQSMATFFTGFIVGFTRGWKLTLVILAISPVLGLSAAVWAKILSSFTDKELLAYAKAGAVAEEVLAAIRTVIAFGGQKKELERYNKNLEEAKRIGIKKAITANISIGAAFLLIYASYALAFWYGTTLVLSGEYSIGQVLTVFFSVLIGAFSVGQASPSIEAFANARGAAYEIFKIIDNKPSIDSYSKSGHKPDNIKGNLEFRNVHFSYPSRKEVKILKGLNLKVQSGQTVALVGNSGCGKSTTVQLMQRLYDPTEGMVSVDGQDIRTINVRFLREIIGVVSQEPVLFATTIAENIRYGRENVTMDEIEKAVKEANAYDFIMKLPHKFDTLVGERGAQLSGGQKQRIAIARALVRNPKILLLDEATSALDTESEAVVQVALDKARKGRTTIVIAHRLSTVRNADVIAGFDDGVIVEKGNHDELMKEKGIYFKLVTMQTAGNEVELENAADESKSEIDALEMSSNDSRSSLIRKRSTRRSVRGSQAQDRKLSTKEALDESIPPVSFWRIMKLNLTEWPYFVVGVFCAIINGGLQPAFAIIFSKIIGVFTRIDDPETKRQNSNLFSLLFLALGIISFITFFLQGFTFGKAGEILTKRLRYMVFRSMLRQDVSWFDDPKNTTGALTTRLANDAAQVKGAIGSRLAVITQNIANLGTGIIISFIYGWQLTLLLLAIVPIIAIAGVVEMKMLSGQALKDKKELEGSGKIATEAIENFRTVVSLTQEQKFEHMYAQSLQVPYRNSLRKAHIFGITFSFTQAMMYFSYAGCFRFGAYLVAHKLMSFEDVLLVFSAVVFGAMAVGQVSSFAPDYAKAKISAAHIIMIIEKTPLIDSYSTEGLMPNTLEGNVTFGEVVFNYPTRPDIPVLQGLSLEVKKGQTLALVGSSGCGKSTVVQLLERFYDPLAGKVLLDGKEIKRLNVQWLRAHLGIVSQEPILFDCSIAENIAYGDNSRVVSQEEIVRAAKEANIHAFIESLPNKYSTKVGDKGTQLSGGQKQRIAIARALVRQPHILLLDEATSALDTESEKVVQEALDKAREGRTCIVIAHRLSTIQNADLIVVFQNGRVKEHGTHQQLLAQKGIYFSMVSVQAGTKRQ

SMILES	efflux ratio at 1 h, 10 μmol/L (MDR1)	number of feces 2 hr later (Male ICR mice; 1 mg/kg)	EC50 [1] [nM]	number of feces 2 hr later (Male ICR mice; 3 mg/kg)
Cc1c(Cc2ccc(-c3cn(C)nn3)cc2)cc(C(=O)N[C@H]2CCOC[C@@H]2O)c2c1CCO2 [Example 1, 1,5-anhydro-2,3-dideoxy-3-[(4-methyl-5-{[4-(1-methyl-1H-1,2,3-triazol-4-yl)phenyl]methyl}-2,3-dihydro-1-benzofuran-7-carbonyl)amino]-L-threo-pentitol]	3	8.8 ± 2.1	7.9	
COCCNC(=O)c1ccc(Cc2cc(C(=O)N[C@H]3CCOC[C@@H]3O)c3c(c2C)CCO3)cc1F [Example 27, 1,5-anhydro-2,3-dideoxy-3-{[5-({3-fluoro-4-[(2-methoxyethyl)carbamoyl]phenyl}methyl)-4-methyl-2,3-dihydro-1-benzofuran-7-carbonyl]amino}-L-threo-pentitol]	6.2	7.4 ± 0.9	14	6.2 ± 1.0
Cc1c(Cc2ccc(C(=O)NCC(=O)N(C)C)c(F)c2)cc(C(=O)N[C@H]2CCOC[C@@H]2O)c2c1CCO2 [Example 28, 1,5-anhydro-2,3-dideoxy-3-({5-[(4-{[2-(dimethylamino)-2-oxoethyl]carbamoyl}-3-fluorophenyl)methyl]-4-methyl-2,3-dihydro-1-benzofuran-7-carbonyl}amino)-L-threo-pentitol]	12	7.2 ± 1.9	8.6	6.2 ± 1.3
Cc1c(Cc2ccc(C(=O)NC[C@H]3CCCO3)c(F)c2)cc(C(=O)N[C@H]2CCOC[C@@H]2O)c2c1CCO2 [Example 29, 1,5-anhydro-2,3-dideoxy-3-[(5-{[3-fluoro-4-({[(2R)-oxolan-2-yl]methyl}carbamoyl)phenyl]methyl}-4-methyl-2,3-dihydro-1-benzofuran-7-carbonyl)amino]-L-threo-pentitol]	6		11	

From US11970483B2, “Heterocyclic compound” (Takeda Pharmaceutical Company Limited, priority 2018, dated 2024)
